Measurements: patent publication US20240374600A1, “METHODS AND COMPOSITIONS FOR TREATING CANCER” (Onconova Therapeutics, Inc., priority 2021, published 2024)
pIC50: −log10 of the molar value. Entries after “also recorded” stand apart in the source; their conditions may differ.

How the values were obtained:
[1] = Neutropenia in preclinical models (FIG. 2); assay type: in vivo; conditions: in comparison to Comparator 1
kinases = experiment: KinMap kinase inhibition profile (FIG. 1); conditions: compared to a kinase inhibitor that is not compound 1
KIT = KIT (Homo sapiens, UniProt P10721); experiment: In vitro multi-kinase activity, IC50; assay type: biochemical
From the text: (§1) The study evaluates the IC50 values (in nM) of Compound 1 in comparison to FDA approved CDK 4/6 inhibitors Comparator 1, Comparator 2 and Comparator 3, which represent treatment advances for HR+ HER^2-metastatic breast cancer. IC50 value is a quantitative measure indicating the concentration needed to inhibit the listed kinase by 50%.

CDK7/cyclin H = CDK7/cyclin H (Homo sapiens, UniProt P50613); experiment: In vitro multi-kinase activity, IC50; assay type: biochemical
From the text: as §1

CDK4/cyclin D1 = CDK4/cyclin D1 (Homo sapiens, UniProt P11802); experiment: In vitro multi-kinase activity, IC50; assay type: biochemical
From the text: as §1

CDK9/cyclinT1 = CDK9/cyclinT1 (Homo sapiens, UniProt P50750); experiment: In vitro multi-kinase activity, IC50; assay type: biochemical
From the text: as §1

CDK2/cyclin E = CDK2/cyclin E (Homo sapiens, UniProt P24941); experiment: In vitro multi-kinase activity, IC50; assay type: biochemical
From the text: as §1

CDK1/cyclin B = CDK1/cyclin B (Homo sapiens, UniProt P06493); experiment: In vitro multi-kinase activity, IC50; assay type: biochemical
From the text: as §1

ARK 5/NUAK 1 = molecular target: T1, ARK 5/NUAK 1 (Homo sapiens, UniProt O60285); experiment: In vitro multi-kinase activity, IC50; assay type: biochemical
T1 sequence (O60285 1-661): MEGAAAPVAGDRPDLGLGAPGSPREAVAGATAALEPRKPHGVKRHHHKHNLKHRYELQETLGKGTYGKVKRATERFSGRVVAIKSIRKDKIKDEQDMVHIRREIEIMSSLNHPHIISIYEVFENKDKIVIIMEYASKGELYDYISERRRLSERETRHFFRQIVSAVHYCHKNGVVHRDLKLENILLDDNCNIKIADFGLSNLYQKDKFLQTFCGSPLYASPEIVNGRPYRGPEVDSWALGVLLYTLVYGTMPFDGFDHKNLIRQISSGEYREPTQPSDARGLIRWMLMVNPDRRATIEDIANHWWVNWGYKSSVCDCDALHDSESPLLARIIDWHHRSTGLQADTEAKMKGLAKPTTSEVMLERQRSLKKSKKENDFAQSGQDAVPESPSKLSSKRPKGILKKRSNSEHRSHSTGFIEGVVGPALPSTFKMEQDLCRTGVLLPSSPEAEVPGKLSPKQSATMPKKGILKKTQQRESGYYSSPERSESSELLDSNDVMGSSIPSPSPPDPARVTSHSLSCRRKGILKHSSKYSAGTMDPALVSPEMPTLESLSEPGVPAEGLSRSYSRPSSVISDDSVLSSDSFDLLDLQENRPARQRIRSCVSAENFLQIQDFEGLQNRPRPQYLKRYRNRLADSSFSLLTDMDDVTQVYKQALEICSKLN
From the text: as §1

CSF1R = CSF1R (Homo sapiens, UniProt P07333); experiment: In vitro multi-kinase activity, IC50; assay type: biochemical
From the text: as §1

CDK16/cyclin Y = CDK16/cyclin Y (Homo sapiens, UniProt Q00536); experiment: In vitro multi-kinase activity, IC50; assay type: biochemical
From the text: as §1

CDK6/cyclin D1 = CDK6/cyclin D1 (Homo sapiens, UniProt Q00534); experiment: In vitro multi-kinase activity, IC50; assay type: biochemical
From the text: as §1

CDK17/cyclin Y = CDK17/cyclin Y (Homo sapiens, UniProt Q00537); experiment: In vitro multi-kinase activity, IC50; assay type: biochemical
From the text: as §1

[2] = Phase 1 dose-escalation study in patients with advanced cancer; assay type: in vivo, human
Description: The study is a phase 1 dose-escalation study of 8-cyclopentyl-2-((4-(4-methylpiperazin-1-yl)phenyl)amino)-7-oxo-7,8-dihydropyrido[2,3-d]pyrimidine-6-carbonitrile (Compound 1) in patients with advanced cancer. Patients are dosed daily in 28-day cycles with Compound 1 starting at 40 mg daily with dosages escalating 40 mg/day increments for each new cohort or only on days 1-21 of 28-day cycles. […] Adverse events reported are Grade 1 or 2 in severity and are predominantly gastrointestinal (GI) disorders.

CDK17/cyclin Y, sequence (Q00537 whole entry): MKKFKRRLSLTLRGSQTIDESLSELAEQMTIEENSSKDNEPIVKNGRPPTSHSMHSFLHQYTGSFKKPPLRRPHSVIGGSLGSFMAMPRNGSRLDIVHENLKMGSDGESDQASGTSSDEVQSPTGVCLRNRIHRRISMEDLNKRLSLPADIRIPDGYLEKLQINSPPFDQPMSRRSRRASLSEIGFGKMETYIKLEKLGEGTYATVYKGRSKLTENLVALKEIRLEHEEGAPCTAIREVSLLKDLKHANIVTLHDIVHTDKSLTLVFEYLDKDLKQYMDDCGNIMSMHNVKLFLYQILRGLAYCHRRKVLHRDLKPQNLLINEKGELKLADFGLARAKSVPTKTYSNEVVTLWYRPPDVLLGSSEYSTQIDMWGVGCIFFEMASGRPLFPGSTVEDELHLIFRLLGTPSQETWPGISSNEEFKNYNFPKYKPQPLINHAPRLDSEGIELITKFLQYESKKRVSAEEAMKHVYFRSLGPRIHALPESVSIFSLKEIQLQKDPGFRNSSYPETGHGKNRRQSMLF
CDK17/cyclin Y, sequence (Q8ND76 whole entry partner): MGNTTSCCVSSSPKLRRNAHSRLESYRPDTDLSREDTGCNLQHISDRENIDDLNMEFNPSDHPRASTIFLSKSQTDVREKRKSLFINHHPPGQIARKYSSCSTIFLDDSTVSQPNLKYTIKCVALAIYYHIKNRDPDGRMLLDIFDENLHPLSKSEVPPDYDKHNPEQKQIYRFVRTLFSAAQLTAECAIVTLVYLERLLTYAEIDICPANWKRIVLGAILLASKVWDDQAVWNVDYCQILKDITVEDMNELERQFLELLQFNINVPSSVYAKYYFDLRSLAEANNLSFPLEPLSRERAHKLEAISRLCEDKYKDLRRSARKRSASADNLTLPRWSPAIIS
CDK16/cyclin Y, sequence (Q00536 whole entry): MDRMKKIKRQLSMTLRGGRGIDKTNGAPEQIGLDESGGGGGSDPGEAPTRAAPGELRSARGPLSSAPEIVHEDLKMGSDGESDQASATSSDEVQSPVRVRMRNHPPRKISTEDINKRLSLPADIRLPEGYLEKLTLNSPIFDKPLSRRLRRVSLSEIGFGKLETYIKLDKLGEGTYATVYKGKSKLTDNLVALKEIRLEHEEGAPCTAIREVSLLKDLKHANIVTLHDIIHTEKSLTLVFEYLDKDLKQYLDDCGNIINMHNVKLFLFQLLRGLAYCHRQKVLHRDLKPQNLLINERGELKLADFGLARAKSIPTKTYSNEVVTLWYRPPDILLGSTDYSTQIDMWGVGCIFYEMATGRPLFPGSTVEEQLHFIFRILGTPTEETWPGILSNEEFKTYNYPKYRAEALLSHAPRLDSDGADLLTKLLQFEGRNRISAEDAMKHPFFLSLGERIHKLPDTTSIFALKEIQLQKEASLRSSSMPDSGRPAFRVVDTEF
CDK16/cyclin Y, sequence (Q8ND76 whole entry partner): as the sequence (Q8ND76 whole entry partner) above
CSF1R, sequence (P07333 20-972): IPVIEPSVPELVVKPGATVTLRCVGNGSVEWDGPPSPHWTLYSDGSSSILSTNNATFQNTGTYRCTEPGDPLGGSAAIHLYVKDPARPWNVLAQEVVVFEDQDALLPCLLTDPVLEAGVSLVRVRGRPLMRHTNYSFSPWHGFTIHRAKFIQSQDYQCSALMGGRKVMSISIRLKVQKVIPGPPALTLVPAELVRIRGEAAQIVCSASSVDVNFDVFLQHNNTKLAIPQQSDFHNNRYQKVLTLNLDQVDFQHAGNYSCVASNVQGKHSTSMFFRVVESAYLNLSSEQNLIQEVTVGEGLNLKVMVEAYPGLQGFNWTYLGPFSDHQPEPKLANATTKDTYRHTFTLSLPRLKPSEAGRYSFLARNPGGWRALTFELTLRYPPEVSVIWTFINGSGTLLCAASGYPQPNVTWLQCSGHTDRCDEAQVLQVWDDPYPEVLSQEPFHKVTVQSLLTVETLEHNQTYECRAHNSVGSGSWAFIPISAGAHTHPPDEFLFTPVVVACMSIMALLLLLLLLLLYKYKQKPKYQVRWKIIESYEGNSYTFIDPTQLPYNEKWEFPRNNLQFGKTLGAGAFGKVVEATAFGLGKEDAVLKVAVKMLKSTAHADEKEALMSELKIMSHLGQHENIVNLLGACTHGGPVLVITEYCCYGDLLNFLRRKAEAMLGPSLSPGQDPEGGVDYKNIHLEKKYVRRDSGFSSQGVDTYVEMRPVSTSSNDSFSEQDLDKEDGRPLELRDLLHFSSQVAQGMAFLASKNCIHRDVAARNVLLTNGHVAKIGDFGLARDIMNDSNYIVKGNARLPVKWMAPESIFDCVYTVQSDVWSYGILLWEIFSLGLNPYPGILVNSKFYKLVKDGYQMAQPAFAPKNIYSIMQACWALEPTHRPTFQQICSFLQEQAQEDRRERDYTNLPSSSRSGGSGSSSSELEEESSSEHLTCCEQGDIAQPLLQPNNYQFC
CDK9/cyclinT1, sequence (P50750 whole entry): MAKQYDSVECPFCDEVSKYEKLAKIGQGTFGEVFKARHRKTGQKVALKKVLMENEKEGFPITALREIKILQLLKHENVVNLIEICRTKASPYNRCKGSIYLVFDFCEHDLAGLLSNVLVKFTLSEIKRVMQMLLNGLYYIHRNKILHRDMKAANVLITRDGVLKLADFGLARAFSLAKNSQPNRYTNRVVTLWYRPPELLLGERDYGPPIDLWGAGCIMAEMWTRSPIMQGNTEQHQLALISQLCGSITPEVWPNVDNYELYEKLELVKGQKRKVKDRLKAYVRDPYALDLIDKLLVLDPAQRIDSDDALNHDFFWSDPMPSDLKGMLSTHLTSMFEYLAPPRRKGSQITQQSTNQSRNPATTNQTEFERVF
CDK9/cyclinT1, sequence (O60563 whole entry partner): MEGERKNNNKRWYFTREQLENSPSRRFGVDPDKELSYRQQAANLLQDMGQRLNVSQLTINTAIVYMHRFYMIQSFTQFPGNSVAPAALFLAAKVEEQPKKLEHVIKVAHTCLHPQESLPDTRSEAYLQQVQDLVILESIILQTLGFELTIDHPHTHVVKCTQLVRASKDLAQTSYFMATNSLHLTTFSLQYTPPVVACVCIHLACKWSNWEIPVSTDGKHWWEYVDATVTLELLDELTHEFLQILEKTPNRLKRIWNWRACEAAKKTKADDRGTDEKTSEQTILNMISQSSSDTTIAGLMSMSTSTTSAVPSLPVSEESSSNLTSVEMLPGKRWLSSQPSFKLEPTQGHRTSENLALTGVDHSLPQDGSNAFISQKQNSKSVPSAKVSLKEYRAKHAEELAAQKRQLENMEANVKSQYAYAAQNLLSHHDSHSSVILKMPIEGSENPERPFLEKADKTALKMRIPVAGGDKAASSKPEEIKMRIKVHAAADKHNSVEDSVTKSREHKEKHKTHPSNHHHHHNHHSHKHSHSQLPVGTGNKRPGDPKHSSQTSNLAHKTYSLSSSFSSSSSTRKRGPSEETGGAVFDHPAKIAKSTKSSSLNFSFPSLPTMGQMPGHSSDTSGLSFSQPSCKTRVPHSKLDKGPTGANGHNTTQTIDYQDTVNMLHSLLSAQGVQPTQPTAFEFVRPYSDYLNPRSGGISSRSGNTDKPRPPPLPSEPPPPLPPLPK
CDK1/cyclin B, sequence (P06493 whole entry): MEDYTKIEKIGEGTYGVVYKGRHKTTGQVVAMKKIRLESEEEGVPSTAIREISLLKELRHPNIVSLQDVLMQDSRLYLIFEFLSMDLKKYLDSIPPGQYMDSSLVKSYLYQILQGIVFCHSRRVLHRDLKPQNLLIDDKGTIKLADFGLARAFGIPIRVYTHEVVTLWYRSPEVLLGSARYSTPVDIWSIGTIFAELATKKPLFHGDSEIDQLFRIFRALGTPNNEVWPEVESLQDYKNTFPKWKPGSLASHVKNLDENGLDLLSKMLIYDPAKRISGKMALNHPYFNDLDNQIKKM
CDK1/cyclin B, sequence (P14635 whole entry partner): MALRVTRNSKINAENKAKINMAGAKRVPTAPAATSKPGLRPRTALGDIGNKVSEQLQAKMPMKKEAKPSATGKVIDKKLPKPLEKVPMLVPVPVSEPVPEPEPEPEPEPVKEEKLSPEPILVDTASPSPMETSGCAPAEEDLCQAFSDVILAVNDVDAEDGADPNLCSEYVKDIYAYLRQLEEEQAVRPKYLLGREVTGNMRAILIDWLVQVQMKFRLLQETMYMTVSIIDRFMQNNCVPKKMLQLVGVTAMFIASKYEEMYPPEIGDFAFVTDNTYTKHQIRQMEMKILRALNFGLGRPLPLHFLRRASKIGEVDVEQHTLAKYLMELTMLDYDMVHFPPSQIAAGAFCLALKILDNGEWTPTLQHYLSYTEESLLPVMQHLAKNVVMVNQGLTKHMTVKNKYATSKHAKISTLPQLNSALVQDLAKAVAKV
CDK4/cyclin D1, sequence (P11802 whole entry): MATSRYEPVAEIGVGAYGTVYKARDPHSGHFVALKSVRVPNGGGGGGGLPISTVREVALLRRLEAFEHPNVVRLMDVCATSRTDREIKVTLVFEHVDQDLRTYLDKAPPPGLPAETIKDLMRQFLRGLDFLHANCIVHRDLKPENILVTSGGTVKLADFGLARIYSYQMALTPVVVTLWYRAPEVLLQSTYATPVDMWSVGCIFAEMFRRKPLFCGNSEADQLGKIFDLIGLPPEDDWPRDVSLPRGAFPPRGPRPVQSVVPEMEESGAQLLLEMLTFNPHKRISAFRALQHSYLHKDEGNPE
CDK4/cyclin D1, sequence (P24385 whole entry partner): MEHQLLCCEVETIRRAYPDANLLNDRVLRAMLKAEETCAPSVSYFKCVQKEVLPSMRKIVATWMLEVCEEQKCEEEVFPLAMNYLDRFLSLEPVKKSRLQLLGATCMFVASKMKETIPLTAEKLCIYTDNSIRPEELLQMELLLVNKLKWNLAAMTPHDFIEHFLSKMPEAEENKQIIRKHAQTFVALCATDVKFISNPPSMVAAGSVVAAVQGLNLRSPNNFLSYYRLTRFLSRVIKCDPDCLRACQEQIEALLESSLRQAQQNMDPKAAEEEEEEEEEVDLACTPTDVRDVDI

inhibition profile by KinMap (kinases): wider inhibition profile | pIC50 (KIT): 8.07 | pIC50 (CDK7/cyclin H): 5.42 | pIC50 (CDK4/cyclin D1): 8.70 | pIC50 (CDK9/cyclinT1): 7.32 | pIC50 (CDK2/cyclin E): 7.16 | pIC50 (CDK1/cyclin B): 6.29 | pIC50 (ARK 5/NUAK 1): 8.30 | pIC50 (CSF1R): 9.15 | pIC50 (CDK16/cyclin Y): 7.60 | pIC50 (CDK6/cyclin D1): 9.22 | pIC50 (CDK17/cyclin Y): 7.85
Structure (SMILES): CN1CCN(c2ccc(Nc3ncc4cc(C#N)c(=O)n(C5CCCC5)c4n3)cc2)CC1 [Compound 1, 8-cyclopentyl-2-((4-(4-methylpiperazin-1-yl)phenyl)amino)-7-oxo-7,8-dihydropyrido[2,3-d]pyrimidine-6-carbonitrile]
neutropenia [1]: reduced Neutropenia; also recorded: less neutropenia | dose-limiting toxicities ([2]; 200 mg/day cohort, oral, daily in 28-day cycles): No dose-limiting toxicities | severity of adverse events reported ([2]; predominantly gastrointestinal (GI) disorders): Grade 1 or 2
